Reference: patent US6355799B1, “Substituted benzene compounds, process for their preparation, and herbicidal and defoliant compositions containing them” (ISK Americas Incorporated, priority 1997, dated 2002)

Assays:
Type in all cases: in vivo
[1] = test system: common ragweed (Ambrosia artemisizfolia L., AMBEL); assay: Pre-emerge test, greenhouse herbicide activity screening; conditions: rated 14 days after application, 0 = no damage, 100 = complete death
Method in brief: (§1)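 Sandy loam pots; pre-emerge: sown 1 d pre-spray, surface-watered after, then bottom-watered. Post-emerge: sown 8–21 d before, 2–3 leaf stage, + 0.25% v/v NIS, bottom-watered. Acetone, 187 l/ha track spray, 15–1000 g ai/ha. 0–100 injury score, day 14.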

[2] = test system: sicklepod (Cassia obtusifolia, CASOB); assay: as above; conditions: rated 14 days after application, 0 = no damage, 100 = complete death
Method in brief: as §1

[3] = test system: large crabgrass (Digitaria sanguinalis, DIGSA); assay: as above; conditions: rated 14 days after application, 0 = no damage, 100 = complete death
Method in brief: as §1

[4] = test system: ivyleaf morningglory (Ipomoea hederacea, IPOHE); assay: as above; conditions: rated 14 days after application, 0 = no damage, 100 = complete death
Method in brief: as §1

[5] = test system: johnsongrass (Sorghum halepense, SORHA); assay: as above; conditions: rated 14 days after application, 0 = no damage, 100 = complete death
Method in brief: as §1

[6] = test system: green foxtail (Setaria viridis, SETVI); assay: as above; conditions: rated 14 days after application, 0 = no damage, 100 = complete death
Method in brief: as §1

[7] = test system: barnyardgrass (Echinochloa crus-galli, ECHCG); assay: as above; conditions: rated 14 days after application, 0 = no damage, 100 = complete death
Method in brief: as §1

[8] = test system: velvetleaf (Abutilon theophrasti, ABUTH); assay: as above; conditions: rated 14 days after application, 0 = no damage, 100 = complete death
Method in brief: as §1

[9] = test system: lambsquarters (Chenopodium album, CHEAL); assay: as above; conditions: rated 14 days after application, 0 = no damage, 100 = complete death
Method in brief: as §1

[10] = test system: field corn (Zea mays L., var. Dekalb 535, CORN); assay: Post-emerge test, crop safety; conditions: post-emerge, 14 days after application, rating scale 0-100
Method in brief: as §1

[11] = test system: upland rice (Oryza sp., var. Tebonnet, RICE); assay: Post-emerge test, crop safety; conditions: post-emerge, 14 days after application, rating scale 0-100
Method in brief: as §1

[12] = test system: field corn (Zea mays L., var. Dekalb 535, CORN); assay: Pre-emerge test, crop safety; conditions: rated 14 days after application, 0 = no damage, 100 = complete death
Method in brief: (§2)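 Applied at 15–1000 g ai/ha from acetone in 187 l/ha spray volume. Post-emergence applications included 0.25% v/v non-ionic surfactant and reached plants sown 8–21 days before. Pre-emergence applications were incorporated by surface watering. Efficacy or crop damage was rated on a 0–100 scale after 14 days.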

[13] = test system: upland rice (Oryza sp., var. Tebonnet, RICE); assay: Pre-emerge test, crop safety; conditions: rated 14 days after application, 0 = no damage, 100 = complete death
Method in brief: as §2

[14] = test system: redroot pigweed (Amaranthus retroflexus, AMARE); assay: Pre-emerge test, greenhouse herbicide activity screening; conditions: rated 14 days after application, 0 = no damage, 100 = complete death
Method in brief: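 Plants grown in 10 cm pots of sandy loam mix received acetone-dissolved compounds through a moving flat-fan nozzle. Doses ranged from 15 to 1000 g ai/ha. Pre-emerge pots were seeded one day earlier, post-emerge pots 8–21 days earlier. Fourteen days on, each pot was graded 0–100 for damage.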

[15] = test system: common ragweed (Ambrosia artemisizfolia L., AMBEL); assay: Post-emerge test, greenhouse herbicide activity screening; conditions: post-emerge, 14 days after application, rating scale 0-100
Method in brief: (§3)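 Compounds in acetone were track-sprayed at 15-1000 g ai/ha (187 l/ha) on sandy loam pots: pre-emerge one day after seeding, post-emerge at 2-3 leaf stage with 0.25% v/v non-ionic surfactant. Phytotoxicity was rated 14 days later on a 0 (no damage) to 100 (complete death) scale.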

[16] = test system: sicklepod (Cassia obtusifolia, CASOB); assay: as above; conditions: post-emerge, 14 days after application, rating scale 0-100
Method in brief: as §3

[17] = test system: large crabgrass (Digitaria sanguinalis, DIGSA); assay: as above; conditions: post-emerge, 14 days after application, rating scale 0-100
Method in brief: as §3

[18] = test system: ivyleaf morningglory (Ipomoea hederacea, IPOHE); assay: as above; conditions: post-emerge, 14 days after application, rating scale 0-100
Method in brief: as §3

[19] = test system: johnsongrass (Sorghum halepense, SORHA); assay: as above; conditions: post-emerge, 14 days after application, rating scale 0-100
Method in brief: as §3

[20] = test system: green foxtail (Setaria viridis, SETVI); assay: as above; conditions: post-emerge, 14 days after application, rating scale 0-100
Method in brief: as §3

[21] = test system: redroot pigweed (Amaranthus retroflexus, AMARE); assay: as above; conditions: post-emerge, 14 days after application, rating scale 0-100
Method in brief: as §3

[22] = test system: barnyardgrass (Echinochloa crus-galli, ECHCG); assay: as above; conditions: post-emerge, 14 days after application, rating scale 0-100
Method in brief: as §3

[23] = test system: velvetleaf (Abutilon theophrasti, ABUTH); assay: as above; conditions: post-emerge, 14 days after application, rating scale 0-100
Method in brief: as §3

[24] = test system: lambsquarters (Chenopodium album, CHEAL); assay: as above; conditions: post-emerge, 14 days after application, rating scale 0-100
Method in brief: as §3

For `COc1c(Cl)cc(F)c(-n2c(=O)cc(C(F)(F)F)n(C)c2=O)c1NC(=O)c1ccc(F)c(F)c1` [2-48], the “Pre-emerge Herbicidal Activity, phytotoxicity rating (0-100), AMBEL” value ([1]; 63 g ai/ha) was 100, the “Pre-emerge Herbicidal Activity, phytotoxicity rating (0-100), AMBEL” value ([1]; 250 g ai/ha) was 100 and the “Pre-emerge Herbicidal Activity, phytotoxicity rating (0-100), CASOB” value ([2]; 63 g ai/ha) was 100. The “Pre-emerge Herbicidal Activity, phytotoxicity rating (0-100), CASOB” value ([2]; 250 g ai/ha) was 100, the “Pre-emerge Herbicidal Activity, phytotoxicity rating (0-100), DIGSA” value ([3]; 63 g ai/ha) was 95 and the “Pre-emerge Herbicidal Activity, phytotoxicity rating (0-100), DIGSA” value ([3]; 250 g ai/ha) was 100. The “Pre-emerge Herbicidal Activity, phytotoxicity rating (0-100), IPOHE” value ([4]; 63 g ai/ha) was 100, the “Pre-emerge Herbicidal Activity, phytotoxicity rating (0-100), IPOHE” value ([4]; 250 g ai/ha) was 100 and the “Pre-emerge Herbicidal Activity, phytotoxicity rating (0-100), SORHA” value ([5]; 63 g ai/ha) was 95. For the same molecule, the “Pre-emerge Herbicidal Activity, phytotoxicity rating (0-100), SORHA” value ([5]; 250 g ai/ha) was 95, the “Pre-emerge Herbicidal Activity, phytotoxicity rating (0-100), SETVI” value ([6]; 63 g ai/ha) was 100 and the “Pre-emerge Herbicidal Activity, phytotoxicity rating (0-100), SETVI” value ([6]; 250 g ai/ha) was 100. The “Pre-emerge Herbicidal Activity, phytotoxicity rating (0-100), ECHCG” value ([7]; 63 g ai/ha) was 85, the “Pre-emerge Herbicidal Activity, phytotoxicity rating (0-100), ECHCG” value ([7]; 250 g ai/ha) was 100 and the “Pre-emerge Herbicidal Activity, phytotoxicity rating (0-100), ABUTH” value ([8]; 63 g ai/ha) was 100. For the same molecule, the “Pre-emerge Herbicidal Activity, phytotoxicity rating (0-100), ABUTH” value ([8]; 250 g ai/ha) was 100, the “Pre-emerge Herbicidal Activity, phytotoxicity rating (0-100), CHEAL” value ([9]; 63 g ai/ha) was 100 and the “Pre-emerge Herbicidal Activity, phytotoxicity rating (0-100), CHEAL” value ([9]; 250 g ai/ha) was 100. For the same molecule, the “phytotoxicity rating CORN” value ([10]; 63 g ai/ha) was 50, the “phytotoxicity rating CORN” value ([10]; 250 g ai/ha) was 70 and the “phytotoxicity rating RICE” value ([11]; 63 g ai/ha) was 80. The “phytotoxicity rating RICE” value ([11]; 250 g ai/ha) was 86, the “Pre-emerge phytotoxicity rating (0-100), crop damage, CORN” value ([12]; 63 g ai/ha) was 90 and the “Pre-emerge phytotoxicity rating (0-100), crop damage, CORN” value ([12]; 250 g ai/ha) was 99. The “Pre-emerge phytotoxicity rating (0-100), crop damage, RICE” value ([13]; 63 g ai/ha) was 90, the “Pre-emerge phytotoxicity rating (0-100), crop damage, RICE” value ([13]; 250 g ai/ha) was 99 and the “Pre-emerge Herbicidal Activity, phytotoxicity rating (0-100), AMARE” value ([14]; 63 g ai/ha) was 100. For the same molecule, the “Pre-emerge Herbicidal Activity, phytotoxicity rating (0-100), AMARE” value ([14]; 250 g ai/ha) was 100, the “phytotoxicity rating AMBEL” value ([15]; 63 g ai/ha) was 85 and the “phytotoxicity rating AMBEL” value ([15]; 250 g ai/ha) was 100. For the same molecule, the “phytotoxicity rating CASOB” value ([16]; 63 g ai/ha) was 50, the “phytotoxicity rating CASOB” value ([16]; 250 g ai/ha) was 100 and the “phytotoxicity rating DIGSA” value ([17]; 63 g ai/ha) was 0. The “phytotoxicity rating DIGSA” value ([17]; 250 g ai/ha) was 20, the “phytotoxicity rating IPOHE” value ([18]; 63 g ai/ha) was 100 and the “phytotoxicity rating IPOHE” value ([18]; 250 g ai/ha) was 100. For the same molecule, the “phytotoxicity rating SORHA” value ([19]; 63 g ai/ha) was 30, the “phytotoxicity rating SORHA” value ([19]; 250 g ai/ha) was 60 and the “phytotoxicity rating SETVI” value ([20]; 63 g ai/ha) was 20. The “phytotoxicity rating SETVI” value ([20]; 250 g ai/ha) was 70, the “phytotoxicity rating AMARE” value ([21]; 63 g ai/ha) was 95 and the “phytotoxicity rating AMARE” value ([21]; 250 g ai/ha) was 100. The “phytotoxicity rating ECHCG” value ([22]; 63 g ai/ha) was 0, the “phytotoxicity rating ECHCG” value ([22]; 250 g ai/ha) was 80 and the “phytotoxicity rating ABUTH” value ([23]; 63 g ai/ha) was 100. For the same molecule, the “phytotoxicity rating ABUTH” value ([23]; 250 g ai/ha) was 100, the “phytotoxicity rating CHEAL” value ([24]; 63 g ai/ha) was 95 and the “phytotoxicity rating CHEAL” value ([24]; 250 g ai/ha) was 100.
